# Laboratory results: article PMC8632988, “Inhibition of SYK and cSrc kinases can protect bone and cartilage in preclinical models of osteoarthritis and rheumatoid arthritis” (Scientific Reports, 2021)
# Values joined by “and” are separate entries in the source; they are usually repeats but may differ in a detail not shown here. Equal entries are not always repeated.
# How the values were obtained:
# [1] = test system: Sprague-Dowley rats, medial meniscal tear (MMT) model; experiment: Surgically induced meniscal tear OA in rats; format: in vivo, rat; details: day 21
# Method: Medial meniscal tear (MMT) model was performed at Pharmenterprises, Russia according to the published procedure[31] and approved by Ethics Committee of Pharmenterprises. Male 4-month old Sprague-Dowley rats were anesthetized with Zoletil (Vibrac, France) and Xylazine (Interchemie werken "De Adelaar" BV, Netherlands) mixture. The medial collateral ligament was transected, and the medial meniscus was grasped with a hemostat and reflected proximally toward the femur. The meniscus was transected and then skin was closed with sutures. 60–90 min after surgery rats were subcutaneously injected with flexoprofen (VIC GROUP, Russia). Treatment groups (20 rats each) were intragastrically treated with MT-SYK-03 (100 and 500 mg/kg) or vehicle control (0.5% methylcellulose solution) 24 h before OA induction and then once daily for 21 day. Active control group was subcutaneously injected with zoledronic acid (0.1 mg/kg) 24 h before OA induction and then once every three days for 21 day. After 21 day animals were sacrificed; surgically operated right knee was removed and used for image analysis.
# [2] = Pharmacokinetics after single oral administration to rabbits; format: in vivo, rabbit; details: single oral 50 mg/kg
# Method: Experiments were performed at ChemPartner, Shanghai, China and approved by Institutional Ethics Committee (IEC) of ChemPartner. Male Wistar 10–12 weeks old rats with body weights of 185–220 g and male New Zealand rabbits with body weights of 2.0–2.3 kg were purchased from Shanghai SLAC Laboratory Animal Co., Ltd. MT-SYK-03 was administered to the three groups of rats (six rats per group) via oral gavage at 10 mL/kg concentration, and in rabbits 5 mL/kg concentration. Blood samples were kept on ice and centrifuged (2000 g, 4 ℃, 5 min) within 15 min post sampling.
# [3] = test system: Wistar rats, MIA osteoarthritis model; experiment: Monosodium iodoacetate induced osteoarthritis in rats; format: in vivo, rat
# Method: Monosodium iodoacetate (MIA) osteoarthritis model was performed at Pharmenterprises, Russia according to the known procedure[32] and approved by Ethics Committee of Pharmenterprises. Male 10 week old Wistar rats were divided into eight groups: negative control (#1), positive control (#2) and six treatment groups (#3–8), ten rats in each group. Group #1 was left intact while rats in groups #2–8 were anesthetized on the day 0 with intraperitoneal injection of Zoletil and Xylazine mixture and given a single intra-articular injection of MIA through the infrapatellar ligament of the right knee. Rats were treated as follows: (#1, #2) 0.5% solution of methylcellulose in PBS (pH = 3) as vehicle control, (#3, #5) 100 mg/kg MT-SYK-03, (#4, #6) 500 mg/kg MT-SYK-03, (#7) 50 mg/kg nalgesin and (#8) 0.1 mg/kg zoledronic acid. Rats in groups #1–4 received treatment intragastrically QD, 25 and 1 h before the MIA injection, and then daily until the end of the study on the day 28. Rats in groups #5–6 received treatment intragastrically QD from the day 7 until the end of the study. Rats in group #7 were treated QD starting on the day 14 and until the end of the study. Finally, rats in group #8 were treated subcutaneously immediately after the MIA injection and then every third day until the study end. Disease progression was monitored by measuring mechanical hyperalgesia, mechanical allodynia and grip strength of hind paws on the days 14, 21, and 28, just before the treatment, and 1, 3, 6 h after it.
# [4] = target: SYK (Homo sapiens, UniProt P43405); experiment: SYK inhibition radiometric assay; format: biochemical; design: 6xHis; GST; purchased EMD Millipore Corporation (UK), assay service; host or cells: Sf21
# Method: Radiometric assay was performed at EMD Millipore Corporation (UK) by measuring the extent of substrate phosphorylation by 6xHis-SYK (expressed in Sf21 cells) using the standard protocol.
# [5] = 100 mg/kg intragastrically once daily
# [6] = 500 mg/kg intragastrically once daily
# [7] = male, New Zealand, rabbit, plasma
# [8] = MT-SYK-03 100 mg/kg, 7–28 days QD, 14 day, 1 hour after admin.
# [9] = MT-SYK-03 100 mg/kg, 7–28 days QD, 14 day, 3 hours after admin.
# [10] = MT-SYK-03 100 mg/kg, 7–28 days QD, 21 day, 1 hour after admin.
# [11] = MT-SYK-03 100 mg/kg, 7–28 days QD, 21 day, 3 hours after admin.
# [12] = MT-SYK-03 100 mg/kg, 7–28 days QD, 28 day, 1 hour after admin.
# [13] = MT-SYK-03 100 mg/kg, 7–28 days QD, 28 day, 3 hours after admin.
# [14] = MT-SYK-03 100 mg/kg, −1–28 days QD, 14 day, 1 hour after admin.
# [15] = MT-SYK-03 100 mg/kg, −1–28 days QD, 14 day, 3 hours after admin.
# [16] = MT-SYK-03 100 mg/kg, −1–28 days QD, 21 day, 1 hour after admin.
# [17] = MT-SYK-03 100 mg/kg, −1–28 days QD, 21 day, 3 hours after admin.
# [18] = MT-SYK-03 100 mg/kg, −1–28 days QD, 28 day, 1 hour after admin.
# [19] = MT-SYK-03 100 mg/kg, −1–28 days QD, 28 day, 3 hours after admin.
# [20] = MT-SYK-03 500 mg/kg, 7–28 days QD, 14 day, 1 hour after admin.
# [21] = MT-SYK-03 500 mg/kg, 7–28 days QD, 14 day, 3 hours after admin.
# [22] = MT-SYK-03 500 mg/kg, 7–28 days QD, 21 day, 1 hour after admin.
# [23] = MT-SYK-03 500 mg/kg, 7–28 days QD, 21 day, 3 hours after admin.
# [24] = MT-SYK-03 500 mg/kg, 7–28 days QD, 28 day, 1 hour after admin.
# [25] = MT-SYK-03 500 mg/kg, 7–28 days QD, 28 day, 3 hours after admin.
# [26] = MT-SYK-03 500 mg/kg, −1–28 days QD, 14 day, 1 hour after admin.
# [27] = MT-SYK-03 500 mg/kg, −1–28 days QD, 14 day, 3 hours after admin.
# [28] = MT-SYK-03 500 mg/kg, −1–28 days QD, 21 day, 1 hour after admin.
# [29] = MT-SYK-03 500 mg/kg, −1–28 days QD, 21 day, 3 hours after admin.
# [30] = MT-SYK-03 500 mg/kg, −1–28 days QD, 28 day, 1 hour after admin.
# [31] = MT-SYK-03 500 mg/kg, −1–28 days QD, 28 day, 3 hours after admin.
compound,measurement,setting,value
COc1cc(Nc2ncnc(Nc3cc4c(cn3)NC(=O)C(C)(C)O4)n2)cc(OC)c1OC [MT-SYK-03],Lesion area,[1]; [5],37.3 ± 3.3%
same,Lesion depth,[1]; [5],72.5 ± 6.0%
same,Lesion area,[1]; [6],30.5 ± 2.8%
same,Lesion depth,[1]; [6],35.0 ± 3.0% and 35.0 ± 3.0& %
same,AUC(0-inf),[2]; [7],121 µg·h/mL
same,Cmax,[2]; [7],8570 ng/mL and 14.1 µM
same,Tmax,[2]; [7],6 ± 2.19 h
same,k el,[2]; [7],2.67e-05 s⁻¹
same,AUC,"[2]; male, New Zealand, rabbit, plasma, read-out: AUC48",119 µg·h/mL
same,MRT24,[2],9.2 ± 0.66 h
same,τ1/2,[2],7.41 ± 1.32 h
same,hind paws grip strength,[3]; [8],70.1 ± 10.8 % from the initial one
same,mechanical allodynia pain threshold,[3]; [8],70.2±7.7 % from the initial one
same,mechanical hyperalgesia,[3]; [8],51.9 ± 4.1 & % from the initial one
same,hind paws grip strength,[3]; [9],58.9 ± 7.8 & % from the initial one
same,mechanical allodynia pain threshold,[3]; [9],78.7±10.6 % from the initial one
same,mechanical hyperalgesia,[3]; [9],50.6 ± 5.6 & % from the initial one
same,hind paws grip strength,[3]; [10],76.3 ± 6.2 & % from the initial one
same,mechanical allodynia pain threshold,[3]; [10],75.3±15.4 % from the initial one
same,mechanical hyperalgesia,[3]; [10],85.1 ± 5 % from the initial one
same,hind paws grip strength,[3]; [11],62.56 ± 7.58 % from the initial one
same,mechanical allodynia pain threshold,[3]; [11],73.1±7.9 % from the initial one
same,mechanical hyperalgesia,[3]; [11],73.5 ± 6.9 & % from the initial one
same,hind paws grip strength,[3]; [12],74.4 ± 13.0 % from the initial one
same,mechanical allodynia pain threshold,[3]; [12],61.7±5.8 % from the initial one
same,mechanical hyperalgesia,[3]; [12],67.7 ± 9.8 & % from the initial one
same,hind paws grip strength,[3]; [13],58.1 ± 10.0 % from the initial one
same,mechanical allodynia pain threshold,[3]; [13],78.3±8 % from the initial one
same,mechanical hyperalgesia,[3]; [13],71.24 ± 7.99 % from the initial one
same,hind paws grip strength,[3]; [14],56.3 ± 5.2 & % from the initial one
same,mechanical allodynia pain threshold,[3]; [14],136.3±22.5 & % from the initial one
same,mechanical hyperalgesia,[3]; [14],73.5 ± 10.5 & % from the initial one
same,hind paws grip strength,[3]; [15],58.7 ± 8.2 & % from the initial one
same,mechanical allodynia pain threshold,[3]; [15],136.7±29.2 & % from the initial one
same,mechanical hyperalgesia,[3]; [15],63.9 ± 7.5 & % from the initial one
same,hind paws grip strength,[3]; [16],76.5 ± 4.5 & % from the initial one
same,mechanical allodynia pain threshold,[3]; [16],107.7±12.8 & % from the initial one
same,mechanical hyperalgesia,[3]; [16],74.4 ± 3.3 &# % from the initial one
same,hind paws grip strength,[3]; [17],72.69 ± 9.18 % from the initial one
same,mechanical allodynia pain threshold,[3]; [17],95.5±4.7 & % from the initial one
same,mechanical hyperalgesia,[3]; [17],80.5 ± 10.3 % from the initial one
same,hind paws grip strength,[3]; [18],90.5 ± 14.0 % from the initial one
same,mechanical allodynia pain threshold,[3]; [18],135.8±27.6 & % from the initial one
same,mechanical hyperalgesia,[3]; [18],65.1 ± 7.4 & % from the initial one
same,hind paws grip strength,[3]; [19],88.6 ± 18.5 % from the initial one
same,mechanical allodynia pain threshold,[3]; [19],110.3±16.3 % from the initial one
same,mechanical hyperalgesia,[3]; [19],67.38 ± 9.74 & % from the initial one
same,hind paws grip strength,[3]; [20],68.2 ± 11.3 % from the initial one
same,mechanical allodynia pain threshold,[3]; [20],75.7±3.6 % from the initial one
same,mechanical hyperalgesia,[3]; [20],51.1 ± 5.4 & % from the initial one
same,hind paws grip strength,[3]; [21],78.6 ± 12.1 % from the initial one
same,mechanical allodynia pain threshold,[3]; [21],82.7±12.8 % from the initial one
same,mechanical hyperalgesia,[3]; [21],77.5 ± 6.9 & % from the initial one
same,hind paws grip strength,[3]; [22],67.7 ± 7.9 & % from the initial one
same,mechanical allodynia pain threshold,[3]; [22],74.5±13.9 % from the initial one
same,mechanical hyperalgesia,[3]; [22],56 ± 7.2 & % from the initial one
same,hind paws grip strength,[3]; [23],68.23 ± 6.84 % from the initial one
same,mechanical allodynia pain threshold,[3]; [23],78.9±6.8 % from the initial one
same,mechanical hyperalgesia,[3]; [23],58.5 ± 7.1 & % from the initial one
same,hind paws grip strength,[3]; [24],82.8 ± 9.5 % from the initial one
same,mechanical allodynia pain threshold,[3]; [24],198.4±40.1 & % from the initial one
same,mechanical hyperalgesia,[3]; [24],75 ± 6.1 & % from the initial one
same,hind paws grip strength,[3]; [25],79.8 ± 4.3 % from the initial one
same,mechanical allodynia pain threshold,[3]; [25],161.1±30.5 & % from the initial one
same,mechanical hyperalgesia,[3]; [25],78.02 ± 9.37 % from the initial one
same,hind paws grip strength,[3]; [26],62.8 ± 9.9 % from the initial one
same,mechanical allodynia pain threshold,[3]; [26],113.9±9.7 & % from the initial one
same,mechanical hyperalgesia,[3]; [26],53.8 ± 4.4 & % from the initial one
same,hind paws grip strength,[3]; [27],70.3 ± 7.0 & % from the initial one
same,mechanical allodynia pain threshold,[3]; [27],111.1±17.7 & % from the initial one
same,mechanical hyperalgesia,[3]; [27],52.5 ± 3.3 & % from the initial one
same,hind paws grip strength,[3]; [28],89.6 ± 8.7 % from the initial one
same,mechanical allodynia pain threshold,[3]; [28],105.8±13 & % from the initial one
same,mechanical hyperalgesia,[3]; [28],75.4 ± 6.4 % from the initial one
same,hind paws grip strength,[3]; [29],76.56 ± 4.83 % from the initial one
same,mechanical allodynia pain threshold,[3]; [29],98.1±5.7 & % from the initial one
same,mechanical hyperalgesia,[3]; [29],64.7 ± 4.3 & % from the initial one
same,hind paws grip strength,[3]; [30],86.3 ± 8.3 % from the initial one
same,mechanical allodynia pain threshold,[3]; [30],106.7±12 & % from the initial one
same,mechanical hyperalgesia,[3]; [30],53.5 ± 3.8 & % from the initial one
same,hind paws grip strength,[3]; [31],82.3 ± 12.7 % from the initial one
same,mechanical allodynia pain threshold,[3]; [31],99.2±5.5 & % from the initial one
same,mechanical hyperalgesia,[3]; [31],61.04 ± 1.81 & % from the initial one
same,hind paws grip strength,"[3]; rat MIA, days 14, 21, 28",trend toward restoration of hind paws grip strength
same,Mechanical hyperalgesia pain threshold,"[3]; rat MIA, prophylactic administration, 100 and 500 mg/kg",statistically significant increase of pain thresholds for both doses from day 14
same,mechanical allodynia pain threshold,"[3]; rat MIA, prophylactic treatment regimen",on day 14 pain threshold was elevated in all measurements
same,Mechanical hyperalgesia pain threshold,"[3]; rat MIA, therapeutic treatment regimen",statistically significant improvement appeared only on day 28 for higher dose
same,mechanical allodynia pain threshold,"[3]; rat MIA, treatment regimen",statistically significant on day 28 and only in the higher dose
same,IC50,[4],40 ± 4 nM
